Assay results from patent US4847245A, “N-demethylefrotomycin” (Pfizer Inc., priority 1988, dated 1989).
Values after ≈ are worked out from the molar mass of the structure shown. Read-outs that look alike come from different tables or passages of the source.

Experiments:
Acto. pyog. = experiment: MIC in brain heart infusion (BHI) broth, two-fold dilutions; type: cell-based; details: 24 h
Description: (§1) Generally twelve 2 fold dilutions of the test compound are employed, with initial concentration of the test drug being in the range of 50 to 200 mcg./ml. The susceptibility (MIC) of the test organism is accepted as the lowest concentration of compound capable of producing complete inhibition of growth as judged by the naked eye.

E. coli = experiment: as above; type: cell-based; details: Escherichia coli
Description: as §1

Fusob. necro. = experiment: as above; type: cell-based; details: 24 h
Description: as §1

Hemoph. pleur. = experiment: as above; type: cell-based; details: 24 h
Description: as §1

Lact. acidoph. = experiment: as above; type: cell-based; details: 24 h; Lact. acidoph. 001, Day 1
Description: as §1

Lact. sp. = experiment: as above; type: cell-based; details: 24 h; Lact. sp. 001, Day 1
Description: as §1

Morax. bovis = experiment: as above; type: cell-based
Description: as §1

Past. haem. = experiment: as above; type: cell-based
Description: as §1

Past. mult = experiment: as above; type: cell-based
Description: as §1

Staph. aureus = experiment: as above; type: cell-based; details: Staphylococcus aureus
Description: as §1

Strep. zooedid. = experiment: as above; type: cell-based; details: 24 h; Strep. zooedid. 001, Day 1
Description: as §1

Trepo. hyodis. = experiment: as above; type: cell-based; details: 24 h
Description: as §1

Past. haem. 010 = experiment: mouse protection test; type: in vivo; details: mice infected i.p. with multilethal amounts of Past. haem. 010
Description: Additionally, compound (I) is tested in vivo by the well-known mouse protection test, or by a microbiological (bioassay) determination of serum levels in a variety of mammals (e.g., mouse, rat, dog). For example, at subcutaneous doses of either 100 mg./kg. or 25 mg./kg., there was survival of 5/5 mice infected i.p. with multilethal amounts of Past. haem. 010.

In the case of `CC=CC=CC1OC(O)(C(CC)C(=O)NCC=CC=C(C)C(OC)C(C)C2OC(C=CC=CC=C(C)C(=O)c3c(O)cc[nH]c3=O)C(O)C2O)C(O)C(OC2OC(C)C(OC3OC(C)C(OC)C(O)C3OC)C(OC)C2O)C1(C)C` (stereo not drawn) [N--Demethylefrotomycin, N-demethylefrotomycin], the MIC (Acto. pyog.; Acto. pyog. 002, Day 1) is reported as 12.5 µg/mL (≈ 11 µM), the MIC (Acto. pyog.; Acto. pyog. 008, Day 1) is reported as 12.5 µg/mL (≈ 11 µM) and the MIC (Acto. pyog.; Acto. pyog. 011, Day 1, read-out: MIC) is reported as 100 µg/mL (≈ 88.4 µM). It also gave an MIC (E. coli; 24 h, E. coli 124, Day 1) of over 100 µg/mL, an MIC (E. coli; 48 h, E. coli 124, Day 2) of over 100 µg/mL and an MIC (Fusob. necro.; Fusob. necro. 004, Day 1) of 25 µg/mL (≈ 22.1 µM). The MIC (Fusob. necro.; Fusob. necro. 006, Day 1) was 6.25 µg/mL (≈ 5.52 µM), the MIC (Hemoph. pleur.; Hemoph. pleur. 004, Day 1) was 12.5 µg/mL (≈ 11 µM) and the MIC (Hemoph. pleur.; Hemoph. pleur. 005, Day 1) was 12.5 µg/mL (≈ 11 µM). It also gave an MIC (Hemoph. pleur.; Hemoph. pleur. 024, Day 1, read-out: MIC) of over 100 µg/mL, an MIC (Lact. acidoph.) of 12.5 µg/mL (≈ 11 µM) and an MIC (Lact. sp.) of over 100 µg/mL. It also gave an MIC (Morax. bovis; 24 h, Morax. bovis 001, Day 1) of 6.25 µg/mL (≈ 5.52 µM), an MIC (Morax. bovis; 48 h, Morax. bovis 001, Day 2) of 3.12 µg/mL (≈ 2.76 µM) and an MIC (Past. haem.; 24 h) of 12.5 µg/mL (≈ 11 µM). The MIC (Past. haem.; 24 h, Past. haem. 010, Day 1, read-out: MIC) was 3.12 µg/mL (≈ 2.76 µM), the MIC (Past. haem.; 24 h, Past. haem. 046, Day 1, read-out: MIC) was 25 µg/mL (≈ 22.1 µM) and the MIC (Past. haem.; 24 h, Past. haem. 061, Day 1, read-out: MIC) was 25 µg/mL (≈ 22.1 µM). The MIC (Past. haem.; 48 h) was 12.5 µg/mL (≈ 11 µM), the MIC (Past. haem.; 48 h, Past. haem. 061, Day 2, read-out: MIC) was 3.12 µg/mL (≈ 2.76 µM) and the MIC (Past. haem.; Past. haem. 046, Day 2) was 12.5 µg/mL (≈ 11 µM). The MIC (Past. mult; 24 h, Past. mult 006, Day 1, read-out: MIC) was 6.25 µg/mL (≈ 5.52 µM), the MIC (Past. mult; 24 h, Past. mult 048, Day 1, read-out: MIC) was 3.12 µg/mL (≈ 2.76 µM) and the MIC (Past. mult; 48 h) was 12.5 µg/mL (≈ 11 µM). The MIC (Past. mult; 48 h, Past. mult 048, Day 2, read-out: MIC) was 6.25 µg/mL (≈ 5.52 µM), the MIC (Staph. aureus; 24 h, Staph. aureus 006, Day 1) was over 100 µg/mL and the MIC (Staph. aureus; 48 h, Staph. aureus 006, Day 2) was over 100 µg/mL. It also gave an MIC (Strep. zooedid.) of over 100 µg/mL, an MIC (Trepo. hyodis.; Trepo. hyodis. 001, Day 1) of 1.56 µg/mL (≈ 1.38 µM) and an MIC (Trepo. hyodis.; Trepo. hyodis. 002, Day 1) of 0.78 µg/mL (≈ 0.689 µM). The MIC (Trepo. hyodis.; Trepo. hyodis. 007, Day 1) was 1.56 µg/mL (≈ 1.38 µM), the survival of mice (Past. haem. 010; subcutaneous 25 mg./kg.) was 5/5 and the survival of mice (Past. haem. 010; subcutaneous 100 mg./kg.) was 5/5.
